{"source": "patent EP0077961A2", "about": "“Substituted 2-nitro-5-(4-trifluoromethyl-phenoxy) toluols, process for their preparation and their use as herbicides and plant growth regulators” (BAYER AG, priority 1981, dated 1983)", "test_system": "Baumwollpflanzen", "experiment": "Defoliation and desiccation of the leaves of cotton (Beispiel A)", "format": "in vivo, Baumwolle", "details": "greenhouse; cotton plants sprayed dripping wet at full unfolding of the 5th leaf; rated after 1 week against control plants; concentration not given", "text": "Entlaubung und Austrocknung der Blätter bei Baumwolle\nLösungsmittel: 30 Gewichtsteile Dimethylformamid Emulgator: 1 Gewichtsteil Polyoxyethylen-SorbitanMonolaurat\nZur Herstellung einer zweckmäßigen Wirkstoffzubereitung vermischt man 1 Gewichtsteil Wirkstoff mit den angegebenen Mengen Lösungsmittel und Emulgator und füllt mit Wasser auf die gewünschte Konzentration auf.\nBaumwollpflanzen werden im Gewächshaus bis zur vollen Entfaltung des 5. Folgeblattes angezogen. In diesem Stadium werden die Pflanzen tropfnaß mit den Wirkstoffzubereitungen besprüht. Nach 1 Woche werden der Blattfall und das Austrocknen der Blätter im Vergleich zu den Kontrollpflanzen bonitiert. Es bedeuten: • 0 kein Austrocknen der Blätter, kein Blattfall • + leichtes Austrocknen der Blätter, geringer Blattfall • ++ starkes Austrocknen der Blätter, starker Blattfall • sehr starkes Austrocknen der Blätter, sehr starker Blattfall", "data": [{"smiles": "CC(=O)OCc1cc(Oc2ccc(C(F)(F)F)cc2Cl)ccc1[N+](=O)[O-]", "note": "[Beispiel 1, Essigsäure-(2-nitro-5-(2-chlor-4-trifluormethyl-phenoxy)-benzyl)-ester]", "values": [{"measurement": "Blattfall und Austrocknen der Blätter", "result": "starke Wirksamkeit"}]}]}
